The subject of one data set is PGE2. The conditions noted are these: read-out: PGE2 inhibition IC50; cited from earlier work.
The test system of data set [1] is carrageenan induced edema in rat paw. Briefly: Carrageenan induced edema model in rat paw. Format: in vivo. The conditions noted are these: 50 mg/kg oral; for Anti-inflammatory (AI) %, range over time points: range over 1, 3 and 5 h. (In general: The carrageenan paw model is a standard test of acute inflammation.)
In a further data set the test system is rats. Briefly: Gastric ulcerogenic liability in rats.
Another data set deals with T1, COX-1 (Ovis aries, UniProt P05979).
T1 sequence (P05979 25-600): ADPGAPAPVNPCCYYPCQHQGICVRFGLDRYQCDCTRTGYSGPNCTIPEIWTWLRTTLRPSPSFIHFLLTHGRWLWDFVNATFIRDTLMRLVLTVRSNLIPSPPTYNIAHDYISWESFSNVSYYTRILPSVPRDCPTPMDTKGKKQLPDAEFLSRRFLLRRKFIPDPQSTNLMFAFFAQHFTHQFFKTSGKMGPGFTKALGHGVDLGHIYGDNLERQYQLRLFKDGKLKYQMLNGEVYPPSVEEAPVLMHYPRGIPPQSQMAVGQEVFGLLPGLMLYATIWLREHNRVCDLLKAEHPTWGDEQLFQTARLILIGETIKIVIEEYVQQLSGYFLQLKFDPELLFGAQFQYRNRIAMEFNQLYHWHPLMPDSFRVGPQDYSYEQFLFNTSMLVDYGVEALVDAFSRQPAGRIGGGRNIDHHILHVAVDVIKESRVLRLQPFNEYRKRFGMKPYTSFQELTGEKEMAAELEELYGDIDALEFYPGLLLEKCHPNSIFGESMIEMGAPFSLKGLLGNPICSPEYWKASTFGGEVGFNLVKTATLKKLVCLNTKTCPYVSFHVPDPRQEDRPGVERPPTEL
Put plainly: COX-1 inhibition, enzyme immunoassay. It counts as biochemical, ovine.

The target in another data set is T2, COX-2 (Ovis aries, UniProt P79208).
T2 sequence (P79208 17-603): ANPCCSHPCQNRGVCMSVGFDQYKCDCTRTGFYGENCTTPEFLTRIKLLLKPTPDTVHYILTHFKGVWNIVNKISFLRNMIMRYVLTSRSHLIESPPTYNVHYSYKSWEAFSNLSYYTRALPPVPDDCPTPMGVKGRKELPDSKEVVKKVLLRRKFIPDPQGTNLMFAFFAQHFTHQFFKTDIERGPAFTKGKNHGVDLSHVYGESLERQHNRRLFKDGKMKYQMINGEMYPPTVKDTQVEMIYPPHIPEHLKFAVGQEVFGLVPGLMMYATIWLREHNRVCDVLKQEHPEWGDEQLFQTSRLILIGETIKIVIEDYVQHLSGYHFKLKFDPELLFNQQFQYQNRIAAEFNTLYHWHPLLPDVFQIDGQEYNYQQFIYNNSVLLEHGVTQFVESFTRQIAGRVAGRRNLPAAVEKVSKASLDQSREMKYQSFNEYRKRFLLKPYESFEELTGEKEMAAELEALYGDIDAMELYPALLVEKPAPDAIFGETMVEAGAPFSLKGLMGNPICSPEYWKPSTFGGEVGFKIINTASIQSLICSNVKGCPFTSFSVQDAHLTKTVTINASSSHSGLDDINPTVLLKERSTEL
Put plainly: COX-2 inhibition, enzyme immunoassay. Format: biochemical, ovine. The settings on record: for SI = IC50 (COX-1)/ IC50 (COX-2): selectivity index.

Another data set has as its system TNF-ὰ. The conditions noted are these: cited from earlier work.
A further data set concerns interleukin IL-6. The conditions noted are these: cited from earlier work.

Structures are written as SMILES.

The IC50 is the concentration that gives 50% inhibition.

As to `Cc1ccc(-c2cc(C(F)(F)F)nn2-c2ccc(S(N)(=O)=O)cc2)cc1` [Celecoxib, reference compound], in the data set on PGE2, the IC50 was 0.1 µM. Moreover, in data set [1] (1 h), the “Anti-Inflammatory Activity % (AI)” value came out at 43% and the “Paw edema (change of paw dimensions), mean ± SEM” value stood at 0.83 ± 0.09. Further, in data set [1] (3 h), the “Anti-Inflammatory Activity % (AI)” value worked out at 43% and the “Paw edema (change of paw dimensions), mean ± SEM” value was found to be 0.80 ± 0.11. For the same compound, in data set [1] (5 h), the “Anti-Inflammatory Activity % (AI)” value came out at 54% and the “Paw edema (change of paw dimensions), mean ± SEM” value worked out at 0.65 ± 0.10. In the data set with rats, the “Relative Ulcerogenicity to Celecoxib” value amounted to 1, the “Ulcer Index” value turned out to be 3.00 ± 0.09 and the “Ulcer Number” value was 3.25 ± 0.17.

At COX-1, `CCOC(=O)c1ccc(/N=N/c2ccc(O)c(C3c4c([nH]c(=S)[nH]c4=O)Nc4[nH]c(=S)[nH]c(=O)c43)c2)cc1` [IIIf, Ethyl (E)-4-((3-(4,6-Dioxo-2,8-Dithioxo-1,2,3,4,5,6,7,8,9,10-Decahydropyrido[2,3-D:6,5-D’]Dipyrimidin-5-Yl)-4-Hydroxyphenyl)Diazenyl)Benzoate] showed an IC50 of 11.2 ± 0.27 µM. The “Anti-Inflammatory Activity % (AI)” value in data set [1] (1 h) was determined as 52%. Moreover, in data set [1] (3 h), the “Anti-Inflammatory Activity % (AI)” value is 59% and the “Paw edema (change of paw dimensions), mean ± SEM” value was 0.58 ± 0.11. In data set [1] (5 h), the “Anti-Inflammatory Activity % (AI)” value came to 66% and the “Paw edema (change of paw dimensions), mean ± SEM” value worked out at 0.48 ± 0.14. Moreover, the “Anti-inflammatory (AI) %, range over time points” value in data set [1] is 52–66%. At COX-2, the IC50 was 0.95 ± 0.01 µM and the “SI = IC50 (COX-1)/ IC50 (COX-2)” value was found to be 11.82. In addition, in the data set with rats, the “Relative Ulcerogenicity to Celecoxib” value is 1.25, the “Ulcer Index” value is on record as 3.75 ± 0.11 and the “Ulcer Number” value was 3.75 ± 0.15.

Regarding `CCOC(=O)c1ccc(/N=N/c2cc(C3c4c([nH]c(=S)[nH]c4=O)Nc4[nH]c(=S)[nH]c(=O)c43)c(OC)cc2OC)cc1` [IIIh, Ethyl (E)-4-((5-(4,6-Dioxo-2,8-Dithioxo-1,2,3,4,5,6,7,8,9,10-Decahydropyrido[2,3-D:6,5-D’]Dipyrimidin-5-Yl)-2,4-Dimethoxyphenyl)Diazenyl)Benzoate], at COX-1, 7.84 ± 0.16 µM corresponded to half-maximal inhibition (IC50). Besides, in data set [1] (1 h), the “Anti-Inflammatory Activity % (AI)” value turned out to be 67% and the “Paw edema (change of paw dimensions), mean ± SEM” value is 0.49 ± 0.05. The “Anti-Inflammatory Activity % (AI)” value in data set [1] (5 h) stood at 57%. Further, the “Anti-inflammatory (AI) %, range over time points” value in data set [1] is 57–67%. Moreover, at COX-2, the 50% inhibitory concentration (IC50) amounted to 2.43 ± 0.07 µM and the “SI = IC50 (COX-1)/ IC50 (COX-2)” value worked out at 3.23. Also, in the data set on rats, the “Relative Ulcerogenicity to Celecoxib” value was 1.75, the “Ulcer Index” value was found to be 5.25 ± 0.13 and the “Ulcer Number” value was 6.50 ± 0.11.

For the compound `O=c1[nH]c(=S)[nH]c2c1C(c1cc(/N=N/c3ccc(-c4nc5ccccc5s4)cc3)ccc1O)c1c([nH]c(=S)[nH]c1=O)N2` [IIIi, (E)-5-(5-((4-(Benzo[D]thiazol-2-Yl)Phenyl)Diazenyl)-2-Hydroxyphenyl)-2,8-Dithioxo-2,3,5,8,9,10-Hexahydropyrido[2,3-D:6,5-D’]Dipyrimidine-4,6(1H,7H)-Dione], the results for the 50% inhibitory concentration (IC50) on COX-1 and against COX-2 were 3.25 ± 0.07 µM and 0.69 ± 0.02 µM, respectively. Besides, the “Anti-Inflammatory Activity % (AI)” value was found to be 24% in data set [1] (1 h), 43% in data set [1] (3 h) and 52% in data set [1] (5 h). The “Paw edema (change of paw dimensions), mean ± SEM” value in data set [1] (1 h) was 1.10 ± 0.14; in data set [1] (3 h), 0.80 ± 0.15; in data set [1] (5 h), 0.68 ± 0.13. In addition, the “SI = IC50 (COX-1)/ IC50 (COX-2)” value on COX-2 is given as 4.71.

For the compound `COc1ccc2c(c1)c(CC(=O)O)c(C)n2C(=O)c1ccc(Cl)cc1` [Indomethacin, reference compound], in the data set on rats, the “Relative Ulcerogenicity to Celecoxib” value is 7.5, the “Ulcer Index” value turned out to be 22.5 ± 0.21 and the “Ulcer Number” value came to 14.25 ± 0.31.

In the case of `C[C@@H]1C[C@H]2[C@@H]3CCC4=CC(=O)C=C[C@]4(C)[C@@]3(F)[C@@H](O)C[C@]2(C)[C@@]1(O)C(=O)CO` [dexamethasone], the “inhibition of TNF-ὰ” value in the data set with TNF-ὰ is listed as 72%. The “inhibition of interleukin IL-6” value with interleukin IL-6 is 86%.
